Source: EPA's ToxValDB 9.5 (doi:10.2903/j.efsa.2018.5150)
In brackets after ≈: the same amount, converted by molar mass.

Tests used:
Anas platyrhynchos = conditions: reproductive
Apis mellifera = conditions: acute, mortality
Bibionidae = conditions: chronic/long-term; duration: 28 days
Colinus virginianus = conditions: acute; oral; mortality
Daphnia magna = conditions: chronic/long-term; duration: 21 days
Folsomia candida = conditions: chronic/long-term; duration: 28 days; reproduction
Oncorhynchus mykiss = conditions: acute; duration: 96 hours; mortality
Tagia sp. = conditions: chronic/long-term; duration: 56 days; reproduction
Aphidius rhopalosiphi = assay: LR50; higher = less toxic; conditions: acute; mortality

## CCOC(=O)Nc1cccc(OC(=O)Nc2ccccc2)c1 [Desmedipham]
Anas platyrhynchos
  NOAEL: 11 mg/kg-day
Apis mellifera; dermal
  LD50: > 100 µg/piece
Apis mellifera; oral, unspecified
  LD50: > 101 µg/piece
Bibionidae
  NOEC: 0.14 mg/L
Colinus virginianus
  LD50: > 2000 mg/kg-day
Daphnia magna
  NOEC: 0.02 mg/L
Folsomia candida
  NOEC: 158 mg/kg
Oncorhynchus mykiss
  LC50: 1.41 µg/mL (≈ 4.7 µM)
Rattus norvegicus; acute, oral, mortality
  LD50: > 5000 mg/kg-day
Rattus norvegicus; chronic, duration: 2 years, hematological
  NOAEL: 3.2 mg/kg-day
Rattus norvegicus; reproduction developmental, M, reproduction
  NOAEL: 4 mg/kg-day
Rattus norvegicus; subchronic, duration: 90 days, oral, hematological
  NOAEL: 5.2 mg/kg-day
Tagia sp.
  NOEC: 64 mg/kg
Aphidius rhopalosiphi
  LR50: 63.8 g/ha
